Columns and labels:
Human Calpain 1/NS1 = target: T1, Human Calpain 1/NS1 (Homo sapiens, UniProt P07384); assay: Calpain inhibition continuous fluorescence (FRET) assay, Human Calpain 1/NS1; type: biochemical; conditions: read-out: Human Calpain 1/NS1 IC50
T1 sequence (P07384 1-714): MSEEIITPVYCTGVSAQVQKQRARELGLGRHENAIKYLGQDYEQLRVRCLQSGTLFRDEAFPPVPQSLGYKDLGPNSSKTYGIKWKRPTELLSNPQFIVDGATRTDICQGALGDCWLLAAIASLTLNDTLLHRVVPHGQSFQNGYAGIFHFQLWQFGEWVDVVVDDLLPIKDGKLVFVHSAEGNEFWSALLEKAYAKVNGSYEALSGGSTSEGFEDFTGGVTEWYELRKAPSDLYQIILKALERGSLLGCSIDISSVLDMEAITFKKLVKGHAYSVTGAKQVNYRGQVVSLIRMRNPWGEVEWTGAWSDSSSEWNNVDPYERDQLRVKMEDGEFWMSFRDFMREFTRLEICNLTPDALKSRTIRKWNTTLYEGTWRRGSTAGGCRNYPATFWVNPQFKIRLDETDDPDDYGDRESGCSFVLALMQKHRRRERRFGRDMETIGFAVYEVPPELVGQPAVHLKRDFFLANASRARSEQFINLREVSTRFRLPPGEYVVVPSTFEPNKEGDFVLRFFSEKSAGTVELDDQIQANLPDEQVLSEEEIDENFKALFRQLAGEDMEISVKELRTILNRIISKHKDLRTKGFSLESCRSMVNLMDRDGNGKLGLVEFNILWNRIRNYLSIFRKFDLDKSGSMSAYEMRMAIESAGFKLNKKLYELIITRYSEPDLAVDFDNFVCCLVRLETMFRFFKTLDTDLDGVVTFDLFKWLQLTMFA
T1 sequence (P04632 1-268 partner): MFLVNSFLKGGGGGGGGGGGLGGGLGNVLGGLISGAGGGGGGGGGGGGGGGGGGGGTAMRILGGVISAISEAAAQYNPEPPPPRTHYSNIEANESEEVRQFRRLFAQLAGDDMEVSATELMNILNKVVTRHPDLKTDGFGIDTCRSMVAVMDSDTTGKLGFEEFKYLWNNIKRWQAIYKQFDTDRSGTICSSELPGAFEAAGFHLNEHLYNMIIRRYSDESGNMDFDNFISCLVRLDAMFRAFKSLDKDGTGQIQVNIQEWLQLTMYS
How it was run: (§1)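 Buffer 50 mM Tris pH 7.5/100 mM NaCl/1 mM DTT; enzyme + cpd preinc 25C; start w/ FRET substrate + CaCl2; kinetic 490/520 nm, 10 min; slopes 1-5 min; 4-PL IC50.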

[1] = test system: Calpain activity in SH-SY5Y cells; assay: SH-SY5Y + AMC fluorescence assay (Suc-LLVY-AMC substrate); type: cell-based; conditions: read-out: SH-SY5Y + AMC IC50
[2] = test system: Calpain activity in SH-SY5Y cells (SBDP-150); assay: SH-SY5Y Spectrin western blot assay (SBDP-150 breakdown product, A23187-induced); type: cell-based; conditions: Homo sapiens; SH-SY5Y cells, A23187-induced SBDP-150, western blot; read-out: SH-SY5Y Spectrin IC50
Human Calpain 9/NS1 = target: T2, Human Calpain 9/NS1 (Homo sapiens, UniProt O14815); assay: Calpain inhibition continuous fluorescence (FRET) assay, Human Calpain 9/NS1; type: biochemical; conditions: read-out: Human Calpain 9/NS1 IC50
T2 sequence (O14815 1-690): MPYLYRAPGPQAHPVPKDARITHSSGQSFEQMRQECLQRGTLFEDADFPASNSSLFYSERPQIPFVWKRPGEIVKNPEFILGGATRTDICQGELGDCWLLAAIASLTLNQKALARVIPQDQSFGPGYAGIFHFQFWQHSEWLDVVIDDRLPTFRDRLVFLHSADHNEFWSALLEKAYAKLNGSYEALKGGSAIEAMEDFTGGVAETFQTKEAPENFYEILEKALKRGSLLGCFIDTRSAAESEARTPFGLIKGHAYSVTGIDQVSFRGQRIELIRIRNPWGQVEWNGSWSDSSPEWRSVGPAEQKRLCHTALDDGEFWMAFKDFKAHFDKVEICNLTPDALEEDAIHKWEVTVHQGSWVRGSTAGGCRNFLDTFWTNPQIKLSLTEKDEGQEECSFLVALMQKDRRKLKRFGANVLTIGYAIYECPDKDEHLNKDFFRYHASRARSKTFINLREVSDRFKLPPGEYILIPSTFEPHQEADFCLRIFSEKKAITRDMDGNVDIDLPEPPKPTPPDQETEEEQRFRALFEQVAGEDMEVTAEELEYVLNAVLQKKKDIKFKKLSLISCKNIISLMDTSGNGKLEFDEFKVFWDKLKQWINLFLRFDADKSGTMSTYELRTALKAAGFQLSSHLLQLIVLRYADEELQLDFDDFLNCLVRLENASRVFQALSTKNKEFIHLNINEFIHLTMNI
T2 sequence (P04632 1-268 partner): T1 sequence (P04632 1-268 partner)
How it was run: as §1

Human Calpain 2/NS1 = target: T3, Human Calpain 2/NS1 (Homo sapiens, UniProt P17655); assay: Calpain inhibition continuous fluorescence (FRET) assay, Human Calpain 2/NS1; type: biochemical; conditions: read-out: Human Calpain 2/NS1 IC50
T3 sequence (P17655 1-700): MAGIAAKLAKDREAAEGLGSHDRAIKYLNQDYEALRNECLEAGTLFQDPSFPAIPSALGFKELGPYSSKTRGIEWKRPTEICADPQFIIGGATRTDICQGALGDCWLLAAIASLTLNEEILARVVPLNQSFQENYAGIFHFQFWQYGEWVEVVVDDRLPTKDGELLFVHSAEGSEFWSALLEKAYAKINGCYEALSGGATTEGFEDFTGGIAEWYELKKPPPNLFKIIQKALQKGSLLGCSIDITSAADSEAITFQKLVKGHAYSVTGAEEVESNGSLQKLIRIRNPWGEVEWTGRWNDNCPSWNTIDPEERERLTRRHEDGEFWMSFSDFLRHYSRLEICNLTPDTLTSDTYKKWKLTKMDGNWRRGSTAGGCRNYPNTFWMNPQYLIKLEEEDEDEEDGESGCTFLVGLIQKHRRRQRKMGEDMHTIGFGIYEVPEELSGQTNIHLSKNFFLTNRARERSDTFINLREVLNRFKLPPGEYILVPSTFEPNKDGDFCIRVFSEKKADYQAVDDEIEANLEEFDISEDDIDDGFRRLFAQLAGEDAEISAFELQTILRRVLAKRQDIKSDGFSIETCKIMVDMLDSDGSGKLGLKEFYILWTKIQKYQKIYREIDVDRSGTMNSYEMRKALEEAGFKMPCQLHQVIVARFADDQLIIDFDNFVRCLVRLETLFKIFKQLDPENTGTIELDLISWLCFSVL
T3 sequence (P04632 1-268 partner): T1 sequence (P04632 1-268 partner)
How it was run: as §1

SMILES | IC50 (Human Calpain 1/NS1) [µM] | IC50 [1] [µM] | IC50 [2] [µM] | IC50 (Human Calpain 9/NS1) [µM] | IC50 (Human Calpain 2/NS1) [µM]
Cc1ccc(F)cc1-c1nn(C(F)F)cc1C(=O)NC(Cc1ccccc1)C(=O)C(N)=O (stereo not drawn) [Compound 566, N-(4-amino-3,4-dioxo-1-phenylbutan-2-yl)-1-(difluoromethyl)-3-(5-fluoro-2-methylphenyl)-1H-pyrazole-4-carboxamide] | < 3 | < 10 | 10 to 25 | < 3 | < 3
Cn1cc(C(=O)NC(Cc2ccccc2)C(=O)C(N)=O)c(-c2ccnn2C)n1 (stereo not drawn) [Compound 568, N-(4-amino-3,4-dioxo-1-phenylbutan-2-yl)-1,2′-dimethyl-1H,2′H-[3,3′-bipyrazole]-4-carboxamide] | < 3 | < 10 | > 25 | < 3 | < 3
Cn1cc(C(=O)NC(Cc2ccccc2)C(=O)C(N)=O)c(-c2cccc3ccccc23)n1 (stereo not drawn) [Compound 569, N-(4-amino-3,4-dioxo-1-phenylbutan-2-yl)-1-methyl-3-(naphthalen-1-yl)-1H-pyrazole-4-carboxamide] | < 3 | 10 to 25 | > 25 | < 3 | < 3
Cn1cc(C(=O)NC(Cc2ccccc2)C(=O)C(N)=O)c(-c2cccc3c2OCCO3)n1 (stereo not drawn) [Compound 570, N-(4-amino-3,4-dioxo-1-phenylbutan-2-yl)-3-(2,3-dihydrobenzo[b][1,4]dioxin-5-yl)-1-methyl-1H-pyrazole-4-carboxamide] | < 3 | > 25 | > 25 | < 3 | < 3
Cn1cc(C(=O)NC(Cc2ccccc2)C(=O)C(N)=O)c(C2CCCCC2)n1 (stereo not drawn) [Compound 573, N-(4-amino-3,4-dioxo-1-phenylbutan-2-yl)-3-cyclohexyl-1-methyl-1H-pyrazole-4-carboxamide] | < 3 | < 10 | > 25 | < 3 | < 3
NC(=O)C(=O)C(Cc1ccccc1)NC(=O)c1cn(C(F)F)nc1-c1ccc2cccnc2c1 (stereo not drawn) [Compound 575, N-(4-amino-3,4-dioxo-1-phenylbutan-2-yl)-1-(difluoromethyl)-3-(quinolin-7-yl)-1H-pyrazole-4-carboxamide] | < 3 | > 25 | < 10 | < 3 | < 3
NC(=O)C(=O)C(Cc1ccccc1)NC(=O)c1cn(C(F)F)nc1-c1cccc2ncccc12 (stereo not drawn) [Compound 576, N-(4-amino-3,4-dioxo-1-phenylbutan-2-yl)-1-(difluoromethyl)-3-(quinolin-5-yl)-1H-pyrazole-4-carboxamide] | < 3 | < 10 | < 10 | < 3 | < 3
Cn1cc(C(=O)NC(Cc2cc(F)cc(F)c2)C(=O)C(N)=O)c(-c2ccccc2F)n1 (stereo not drawn) [Compound 580, N-(4-amino-1-(3,5-difluorophenyl)-3,4-dioxobutan-2-yl)-3-(2-fluorophenyl)-1-methyl-1H-pyrazole-4-carboxamide] | < 3 | < 10 | 10 to 25 | < 3 | < 3

Continued, values first:

IC50 (Human Calpain 1/NS1) [µM] | IC50 [1] [µM] | IC50 [2] [µM] | IC50 (Human Calpain 9/NS1) [µM] | IC50 (Human Calpain 2/NS1) [µM] | SMILES
< 3 | < 10 | < 10 | < 3 | < 3 | Cn1cc(C(=O)NC(Cc2ccccc2)C(=O)C(N)=O)c(-c2ccc3c(c2)OCO3)n1 (stereo not drawn) [Compound 567, N-(4-amino-3,4-dioxo-1-phenylbutan-2-yl)-3-(benzo[d][1,3]dioxol-5-yl)-1-methyl-1H-pyrazole-4-carboxamide]
< 3 | > 25 | > 25 | < 3 | < 3 | Cn1cc(C(=O)NC(Cc2ccccc2)C(=O)C(N)=O)c(-c2ccc3ccccc3c2)n1 (stereo not drawn) [Compound 571, N-(4-amino-3,4-dioxo-1-phenylbutan-2-yl)-1-methyl-3-(naphthalen-2-yl)-1H-pyrazole-4-carboxamide]
< 3 | < 10 | > 25 | < 3 | < 3 | Cn1cc(C(=O)NC(Cc2ccccc2)C(=O)C(N)=O)c(-c2ccccc2C(F)F)n1 (stereo not drawn) [Compound 572, N-(4-amino-3,4-dioxo-1-phenylbutan-2-yl)-3-(2-(difluoromethyl)phenyl)-1-methyl-1H-pyrazole-4-carboxamide]
< 3 | > 25 | > 25 | < 3 | < 3 | C#CC[C@H](NC(=O)c1cn(C)nc1-c1ccccc1F)C(=O)C(N)=O [Compound 574, (S)—N-(1-amino-1,2-dioxohex-5-yn-3-yl)-3-(2-fluorophenyl)-1-methyl-1H-pyrazole-4-carboxamide]
< 3 | < 10 | < 10 | < 3 | < 3 | NC(=O)C(=O)C(Cc1ccccc1)NC(=O)c1cn(C(F)F)nc1-c1ccc2cnccc2c1 (stereo not drawn) [Compound 577, N-(4-amino-3,4-dioxo-1-phenylbutan-2-yl)-1-(difluoromethyl)-3-(isoquinolin-6-yl)-1H-pyrazole-4-carboxamide]
< 3 | < 10 | < 10 | < 3 | < 3 | NC(=O)C(=O)C(Cc1ccccc1)NC(=O)c1nsnc1-c1cccc2c1OC(F)(F)O2 (stereo not drawn) [Compound 578, N-(4-amino-3,4-dioxo-1-phenylbutan-2-yl)-4-(2,2-difluorobenzo[d][1,3]dioxol-4-yl)-1,2,5-thiadiazole-3-carboxamide]
< 3 | < 10 | > 25 | < 3 | < 3 | Cn1cc(C(=O)NC(C(=O)C(N)=O)c2ccc3ccccc3c2)c(-c2ccccc2F)n1 (stereo not drawn) [Compound 579, N-(3-amino-1-(naphthalen-2-yl)-2,3-dioxopropyl)-3-(2-fluorophenyl)-1-methyl-1H-pyrazole-4-carboxamide]

Reference: US11339130B1 (Blade Therapeutics, Inc., priority 2016, dated 2022)
